Experimental data published in patent US6495370B1, “Inhibition of glutathione transferase by haloenol lactones” (The Regents of the University of California, priority 1995, dated 2002).
Like-named read-outs stand apart in the source and are kept apart here.

Tests used:
Assay type in all cases: biochemical
GST pi isozyme [1] = molecular target: T1, GST pi isozyme (Mus musculus, UniProt P19157); assay: Time-dependent inhibition of GST pi with and without S-hexylglutathione; details: haloenol lactone 2 200 μM
T1 construct: The three major mouse liver GST isoenzymes were purified according to established methods; from tissue; host or cells: liver of male CD-1 mice
T1 sequence (P19157 2-210 limits assumed): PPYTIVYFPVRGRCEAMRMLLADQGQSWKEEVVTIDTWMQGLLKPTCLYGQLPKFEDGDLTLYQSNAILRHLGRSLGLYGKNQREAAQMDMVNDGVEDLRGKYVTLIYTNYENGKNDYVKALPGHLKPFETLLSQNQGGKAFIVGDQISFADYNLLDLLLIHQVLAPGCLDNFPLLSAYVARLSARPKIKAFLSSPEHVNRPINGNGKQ
Procedure: FIG. 7: Inactivation of glutathione S-transferase (GST) pi isozyme by haloenol lactone 2. The GST concentration was 1.0 μM): ●, control; ▴, +haloenol lactone 2 (200 μM), no S-hexylglutathione; ▪, +haloenol lactone 2 (200 μM), +S-hexylglutathione (2,000 μM).
Enzyme inhibition studies and enzyme assays for this experiment were performed as described in Example 3. S-hexylglutathione dissolved in a 0.1 M potassium phosphate buffer (pH 6.5) was added in the incubation solution. […] In this experiment, we incubated compound 2 with GST-pi isozyme in the presence of S-hexylglutathione (2,000 μM), a competitive inhibitor of GST. […] (See FIG. 7).

GST pi isoenzyme [2] = molecular target: T2, GST pi isoenzyme (Mus musculus, UniProt P19157); assay: Kinetic constants for inhibition of GST pi isoenzyme
T2 construct: The three major mouse liver GST isoenzymes were purified according to established methods; from tissue; host or cells: liver of male CD-1 mice
T2 sequence (P19157 2-210 limits assumed): as above
Procedure: Compounds 1 and 2 were synthesized and purified as described in Example 1, and GST pi isoenzyme was isolated from mouse liver as described in Example 2. Enzyme inhibition studies were performed as described in Example 3, except that four different concentrations of inhibitor were used. Enzyme assays were performed as described in Example 3.

GST pi isoenzyme [3] = molecular target: T2, GST pi isoenzyme; assay: Time-dependent inhibition of purified GST pi isoenzyme (GSH/CDNB activity assay); details: for enzyme activity of GST pi: 100 μM compound, GST 1.0 μM, after 5 minutes at 37° C.; for nature of inhibitory effect on GST pi isozyme: summary statement
Procedure: (§1) The three major mouse liver GST isoenzymes were purified according to established methods. Male CD-1 mice, 25-35 g, were purchased from Charles River Breeding Laboratories, Inc. (Wilmington, Mass.). Animals were housed on autoclaved pine shavings in approved animal care facilities and fed ad libitum for 1 week prior to cervical dislocation.
Mice were killed by cervical dislocation and livers were removed, rinsed with ice-cold 10 mM Tris buffer (pH 7.4) containing 0.25 M sucrose, 1 mM EDTA and 1 mM DTT (buffer A). The tissues were homogenized in buffer A (1 g tissue/2 mL buffer). Centrifugation and all subsequent purification steps were carried out at 4° C. The homogenate was centrifuged at 10,000 g for 30 min. The supernatant fraction was then collected and centrifuged at 100,000 g for 80 min. Supernatant was next passed through a Sephadex G-25 Column (100 cm×2.5 cm) which had been pre-equilibrated in 25 mM potassium phosphate buffer (pH 7.4) containing 1 mM EDTA and 1 mM DTT (buffer B). Column eluants were monitored at 280 nm using an Isco-UA5 detector. The elutant from the G-25 column containing GST activity was applied to an affinity column (11 cm×2.5 cm, GSH-linked agarose, Sigma) at a flow rate of 0.64 ml/min. The first two GST isozymes were eluted using a linear gradient (0-75 mM) of GSH in buffer b (250 mL×250 mL). The third peak containing activity towards CDNB was eluted by using a linear gradient of increasing pH (7.4-9.0) in buffer b which was 75 mM in GSH (150 mL×150 mL). The three main peaks of activity were recovered and pooled separately. Each pool was concentrated to 25-30 mL in an Amicon ultrafiltration cell (Amicon, Inc., Beverly, Mass., USA) with a PM 10 membrane and dialyzed against 4L nanopure water. Pooled proteins were analyzed by ESI/MS to determine purity and subunit molecular weight. […]
(§2) For the enzyme inhibition studies, solutions of alpha, mu and pi glutathione S-transferase (1.0 μg/μl) were prepared in a 0.1 M potassium phosphate buffer (pH 6.5). […] Aliquots were withdrawn at 1, 3, 5, 8 and 12 min, and GST activity was measured using GSH and CDNB as substrates according to the method of Habig et al. (1974) J. Biol. Chem. 249:7130-7139.
In brief, the activity of the enzyme was determined in a 0.1 M potassium phosphate buffer (pH 6.5) containing 1 mM GSH and 1 mM CDNB using an extinction coefficient of 9.6 mM^−1 cm^−1. […] The rate of product formation was monitored by measuring the change in absorbance at 340 nm using a Shimadzu PC-2101 uv-visible spectrophotometer (Shimadzu Scientific Instruments, Columbia, Md., USA). Specific activities are based on protein concentrations as determined by the Bradford protein determination kit from Biorad, Hercules, Calif., USA, using bovine serum albumin as a reference.

GST pi isozyme [4] = molecular target: T1, GST pi isozyme; assay: Irreversible inhibition of GST pi: activity after incubation and exhaustive dialysis; details: 10-fold excess of compound, 37° C., 3 hours, then dialysis against 6 changes of water
Procedure: The dialyzed protein sample was dried by lyophilization. The recovered protein was re-dissolved in water, and specific enzyme activity was determined by measuring the protein content and GST activity.

GST alpha = molecular target: T3, GST alpha (Mus musculus, UniProt P30115); assay: Time-dependent inhibition of purified GST alpha isoenzyme (GSH/CDNB activity assay); details: 100 μM compound, GST 1.0 μM, after 5 minutes at 37° C.
T3 construct: The three major mouse liver GST isoenzymes were purified according to established methods; from tissue; host or cells: liver of male CD-1 mice
T3 sequence (P30115 2-221 limits assumed): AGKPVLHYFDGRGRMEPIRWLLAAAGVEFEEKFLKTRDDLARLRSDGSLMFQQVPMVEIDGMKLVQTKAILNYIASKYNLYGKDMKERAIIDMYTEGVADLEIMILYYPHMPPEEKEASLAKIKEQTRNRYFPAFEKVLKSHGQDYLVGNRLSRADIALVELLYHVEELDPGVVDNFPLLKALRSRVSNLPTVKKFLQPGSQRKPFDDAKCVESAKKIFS
Procedure: as §1
(§3) Mice were killed by cervical dislocation and livers were removed, rinsed with ice-cold 10 mM Tris buffer (pH 7.4) containing 0.25 M sucrose, 1 mM EDTA and 1 mM DTT (buffer A). The tissues were homogenized in buffer A (1 g tissue/2 mL buffer). Centrifugation and all subsequent purification steps were carried out at 4° C. […] Column eluants were monitored at 280 nm using an Isco-UA5 detector. […] Pooled proteins were analyzed by ESI/MS to determine purity and subunit molecular weight. […]
as §2
(§4) In brief, the activity of the enzyme was determined in a 0.1 M potassium phosphate buffer (pH 6.5) containing 1 mM GSH and 1 mM CDNB using an extinction coefficient of 9.6 mM^−1 cm^−1. […]

GST mu = molecular target: T4, GST mu (Mus musculus, UniProt P10649); assay: Time-dependent inhibition of purified GST mu isoenzyme (GSH/CDNB activity assay); details: 100 μM compound, GST 1.0 μM, after 5 minutes at 37° C.
T4 construct: The three major mouse liver GST isoenzymes were purified according to established methods; from tissue; host or cells: liver of male CD-1 mice
T4 sequence (P10649 2-218 limits assumed): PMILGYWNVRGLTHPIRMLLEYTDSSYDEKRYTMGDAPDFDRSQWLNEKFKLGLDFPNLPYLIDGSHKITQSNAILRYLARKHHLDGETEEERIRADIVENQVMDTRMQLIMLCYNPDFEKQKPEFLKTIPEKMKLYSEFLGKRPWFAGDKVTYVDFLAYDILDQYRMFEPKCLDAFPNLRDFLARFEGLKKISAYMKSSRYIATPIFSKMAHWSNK
Procedure: as §1, §3, §2, §4

[5] = GST pi 1.0 μM, 37° C., four inhibitor concentrations

enzyme activity of GST alpha remained (GST alpha) | Ki (GST pi isoenzyme [2]; GST pi 1.0 μM, 37° C., four inhibitor concentrations, read-out: KI) | kinact/KI (GST pi isoenzyme [2]; GST pi, read-out: kinact/KI ratio (converted)) | enzyme activity of GST mu remained (GST mu) | effect of S-hexylglutathione on time-dependent inhibition of GST by compound 2 (GST pi isozyme [1]; S-hexylglutathione 2,000 μM, GST pi 1.0 μM) | SMILES | time in which the enzyme was totally inactivated (GST pi isozyme [1]; GST 1.0 μM, no S-hexylglutathione) | Ki (GST pi isoenzyme [2]) | kinact (GST pi isoenzyme [2]; [5]) | kinact/KI (GST pi isoenzyme [2]; read-out: kinact/KI ratio) | enzyme activity of GST pi (GST pi isoenzyme [3]) | nature of inhibitory effect on GST pi isozyme (GST pi isoenzyme [3]) | enzyme activity of modified GST remained relative to the control (GST pi isozyme [4]) | restoration of GST activity by exhaustive dialysis (GST pi isozyme [4])
– | – | – | – | – | O=C1O/C(=C/Br)CC1CC=Cc1ccccc1 (stereo not shown) [compound 2, 3-Cinnamyl-5(E)-bromomethylidenetetrahydro-2-furanone] | 8 min | 86.7 µM | 0.00933 s⁻¹ | 108 M⁻¹ s⁻¹ | completely inhibited | time-dependent and irreversible | 7.8% | not restored
about 80% | 64.4 µM | 308 M⁻¹ s⁻¹ | about 80% | – | O=C1O/C(=C/Br)CC1CC1OC1c1ccccc1 (stereo not drawn) [compound 1, 3-Cinnamyl-(α,β-epoxy)-5(E)-bromomethylidenetetrahydro-2-furanone] | – | – | 0.0198 s⁻¹ | – | completely inhibited | time-dependent and irreversible | – | –
– | – | – | – | completely suppressed | CCCCCCSC[C@H](NC(=O)CC[C@H](N)C(=O)O)C(=O)NCC(=O)O [S-hexylglutathione, reference compound] | – | – | – | – | – | – | – | –
